Experimental data taken from paper PMC6934184, “Selective DNA-PKcs inhibition extends the therapeutic index of localized radiotherapy and chemotherapy” (The Journal of Clinical Investigation, 2019).

Molecular target: T1, ULK3 (Homo sapiens, UniProt Q6PHR2)
T1 construct: purchased Thermo Fisher Scientific (Life Technologies) SelectScreen
Test: SelectScreen LanthaScreen
Format: binding
Details: 1 µM
Outline: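 Percent values come from Thermo SelectScreen profiling of NU5455, combining activity and binding assays. CSF1R was run in Z'LYTE format at Km app ATP, and CAMK1 in Adapta format with ATP listed at 10.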

T1 sequence (Q6PHR2 whole entry): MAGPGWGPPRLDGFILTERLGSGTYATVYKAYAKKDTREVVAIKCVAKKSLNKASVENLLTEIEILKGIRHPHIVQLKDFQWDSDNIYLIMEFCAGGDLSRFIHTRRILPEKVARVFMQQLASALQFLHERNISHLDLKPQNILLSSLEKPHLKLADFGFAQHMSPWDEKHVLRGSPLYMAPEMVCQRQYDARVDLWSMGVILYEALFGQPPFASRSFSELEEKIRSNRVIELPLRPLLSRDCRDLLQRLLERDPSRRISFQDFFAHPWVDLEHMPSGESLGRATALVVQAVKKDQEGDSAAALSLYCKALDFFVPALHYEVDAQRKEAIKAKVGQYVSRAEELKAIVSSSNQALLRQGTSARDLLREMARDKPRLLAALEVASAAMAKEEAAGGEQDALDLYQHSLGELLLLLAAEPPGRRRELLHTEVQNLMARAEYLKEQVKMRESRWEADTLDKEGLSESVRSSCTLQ

CN(C(=O)CN1CCOCC1)c1ccc2sc3c(-c4cccc5c(=O)cc(N6CC7CCC(C6)O7)oc45)cccc3c2c1 [NU5455]
% displacement: 4.5%
